# Literature values, collected in patent publication US6815453B1, “Cosmetic and dermatological light protection formulations having a content of triazine derivatives and glyceryl compounds” (Beiersdorf AG, priority 1996, dated 2004).
structure (smiles),measurement,setting,value
"CCCCC(CC)COC(=O)c1ccc(Nc2nc(Nc3ccc(C(=O)OCC(CC)CCCC)cc3)nc(Nc3ccc(C(=O)OCC(CC)CCCC)cc3)n2)cc1 (stereo not drawn) [UVINUL® T 150, 4,4′,4″-(1,3,5-triazine-2,4,6-triyltriimino)-trisbenzoic acid tris(2-ethylhexyl ester)]","corresponding dissolved, and therefore active, UV filter substance",corresponding to the maximum solubility in known solvents,1-1.5 % by weight
same,maximum amount of the filter dissolved by known solvents,"known solvents for this UVB filter, prior-art statement",≤ 15 % by weight
same,solubility in lipids,stated in words as the main disadvantage,poor solubility in lipids
